Test: Drug efficacy test: body weight of the mice
Type: in vivo, male nude mice (Balb nu/nu)
Description: Human prostate cancer PC-3 cells were inoculated under the dorsal skin of male nude mice (Balb nu/nu, 5-week-old, CHARLES RIVER LABORATORIES JAPAN, INC.) at 3×10^6 cells per mouse. At the time when the tumor volume reached 90.7±4.5 mm^3 (mean±standard error (SE)) (on day 10 after the inoculation), the drug was administered into the tail vein. […] It should be noted that the dosage is the amount in terms of the drug for each of the groups. […] It should be noted that, when the dosage of the bortezomib aqueous solution was set to more than 1 mg/kg, toxicity due to the active pharmaceutical ingredient became remarkable and the amount of body weight loss reached a severe level (e.g., a loss of 20% or more).

SMILES: CC(C)C[C@H](NC(=O)[C@H](Cc1ccccc1)NC(=O)c1cnccn1)B(O)O [Comparative Example 2, bortezomib]
- Body weight loss (dosage of more than 1 mg/kg, toxicity became remarkable): ≥ 20%
- Relative body weight 7 days after administration vs administration date (tail vein, 1 mg/kg): no significant difference in mouse body weight
